Values quoted from earlier work as cited in patent US20220062352A1, “COMPOSITIONS FOR THE TREATMENT OF CONDITIONS” (Demata Therapeutics, LLC, priority 2018, published 2022).

Tested on: acne vulgaris subjects

With `CC(=O)N[C@H]1C(O)O[C@H](CO)[C@@H](O)[C@@H]1O` (stereo partly drawn) [NAG, N-acetyl-D-glucosamine] as the molecule, how does the “tolerability versus 10% benzoyl peroxide” value (acne vulgaris subjects) read?
Its value is “better tolerated by the subjects than 10% benzoyl peroxide”.

And the “number of acne lesions” value (over an 8-week period)?
Its value is “quickly reduced the number of acne lesions”.
